# Test results from patent publication US12060588B2, “Methods of editing DNA methylation” (Whitehead Institute for Biomedical Research, priority 2016, dated 2024).
# Tests used:
# [1] = test system: Snrpn promoter (IG-DMR GFP/Pat reporter); test: Ex vivo activation of the silenced IG-DMR-Snrpn-GFP reporter in mouse tail fibroblasts; type: cell-based
# Description: FIGS. 7A-7H depict targeted ex vivo and in vivo DNA methylation editing by dCas9-Tet1 to activate a silenced GFP reporter. FIG. 7A provides a schematic diagram illustrating the experimental procedure for the ex vivo activation of a silenced GFP reporter in mouse fibroblast cells. Mouse tail fibroblast cells were derived from a genetically modified mouse line carrying a paternal IG-DMR-Snrpn-GFP allele (IG-DMRGFP/Pat) in the Dlk1-Dio3 locus. The IG-DMR-Snrpn promoter on the paternal allele is hypermethylated so that the GFP reporter is constitutively silenced. The cultured fibroblast cells were infected with lentiviral vectors expressing dCas9-Tet1 and gRNAs to demethylate the Snrpn promoter and activate the GFP reporter. Cells are subject to imaging and FACS analysis. […] Stained in red for Cherry, green for GFP and DAPI for nuclei. Scale bar: 100 um. Note that in order to turn on the Snrpn-GFP methylation reporter, both dCas9-Tet1 and target gRNA lentiviral vectors have to be transduced into the same cells. […] Brains were sliced and analyzed by immunohistochemical approaches. […] FIGS. 7G-7H provide quantification of the percentage of IG-DMR^GFP/Pat cells with GFP activation in Cherry (gRNAs) positive cells in the in vivo lentiviral delivery experiment in the brain (FIG. 7G) and in the skin epidemis (FIG. 7H). […]
# [2] = test system: Snrpn promoter (IG-DMR GFP/Pat reporter), neurons; test: In vivo activation of the IG-DMR GFP/Pat reporter in mouse brain (stereotaxic lentiviral delivery)
# Description: FIGS. 7A-7H depict targeted ex vivo and in vivo DNA methylation editing by dCas9-Tet1 to activate a silenced GFP reporter. FIG. 7A provides a schematic diagram illustrating the experimental procedure for the ex vivo activation of a silenced GFP reporter in mouse fibroblast cells. Mouse tail fibroblast cells were derived from a genetically modified mouse line carrying a paternal IG-DMR-Snrpn-GFP allele (IG-DMRGFP/Pat) in the Dlk1-Dio3 locus. The IG-DMR-Snrpn promoter on the paternal allele is hypermethylated so that the GFP reporter is constitutively silenced. […] Brains were sliced and analyzed by immunohistochemical approaches. […] FIGS. 7G-7H provide quantification of the percentage of IG-DMR^GFP/Pat cells with GFP activation in Cherry (gRNAs) positive cells in the in vivo lentiviral delivery experiment in the brain (FIG. 7G) and in the skin epidemis (FIG. 7H). […]
# To investigate whether the DNA methylation status can be modified in vivo, we infected 3 epidermal sites on the ventral side of an IG-DMR^GFP/Pat transgenic mouse with the dCas9-Tet1 and Snrpn gRNAs (FIG. 14D). […] In addition we infected the brain of an IG-DMR^GFP/Pat transgenic mouse with lentiviral vectors using a stereotaxic setup and analyzed the effect on targeted DNA methylation in brain slices by confocal microscopy. […]
Substance,GFP reporter activation in Cherry (gRNA) positive fibroblasts ([1]; with a sc gRNA),GFP reporter activation in Cherry positive cells of the brain in vivo ([2]; with a scrambled gRNA),"GFP reporter activation in Cherry (gRNA) positive fibroblasts ([1]; with Snrpn target gRNAs, lentiviral transduction)","GFP reporter activation efficiency in Cherry positive cells (neurons) of the brain in vivo ([2]; with Snrpn gRNAs, stereotaxic lentiviral injection, 3 days)"
"dCas9-Tet1: catalytically inactive Cas9 (dCas9) fused through NLS to the Tet1 catalytic domain, SEQ ID NO: 159; lentivirally expressed with gRNAs",cannot turn on GFP reporter expression,did not activate GFP reporter expression,,
"dC-dT: dCas9 fused to an inactive mutant form of Tet1 (H1672Y, D1674A), SEQ ID NO: 160",,,cannot turn on GFP reporter expression,did not activate GFP reporter expression
